Changes are numbered by the printed parent chain.
Tests used:
[1] = target: T1, MGL (Rattus norvegicus, UniProt Q8R431); test: 2-AG accumulation assay in rat brain homogenate; format: biochemical; details: rat brain homogenate; compound 1 μM; 2-AG accumulation as percent of vehicle; read-out: Rat Brain 2AG % VehCntrl (%) @ 1 μM
T1 construct: one g rat brain was homogenized using a Polytron homogenizer; from tissue; host or cells: rat brain homogenate
T1 sequence (Q8R431 1-303): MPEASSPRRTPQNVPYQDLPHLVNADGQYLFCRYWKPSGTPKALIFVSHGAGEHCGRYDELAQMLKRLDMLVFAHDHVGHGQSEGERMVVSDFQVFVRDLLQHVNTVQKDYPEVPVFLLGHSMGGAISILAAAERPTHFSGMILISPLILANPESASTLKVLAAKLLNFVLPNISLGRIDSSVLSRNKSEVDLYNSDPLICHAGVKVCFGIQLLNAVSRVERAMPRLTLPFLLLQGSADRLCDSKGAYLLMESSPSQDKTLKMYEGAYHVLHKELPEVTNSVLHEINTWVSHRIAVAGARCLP

[2] = tested on: CFA-induced paw radiant heat hypersensitivity; test: CFA-induced paw radiant heat hypersensitivity; format: in vivo, rat; details: Rattus norvegicus, po; 30 mg/kg p.o., HPβCD, group mean values, last time point 180 or 300 min; read-out: CFA thermal hypersensitivity Method 1: peak % reversal
[3] = target: T2, purified wild type MGL (wt-MGLL 6H-11-313) (Homo sapiens, UniProt Q99685)
T2 sequence (Q99685 1-303): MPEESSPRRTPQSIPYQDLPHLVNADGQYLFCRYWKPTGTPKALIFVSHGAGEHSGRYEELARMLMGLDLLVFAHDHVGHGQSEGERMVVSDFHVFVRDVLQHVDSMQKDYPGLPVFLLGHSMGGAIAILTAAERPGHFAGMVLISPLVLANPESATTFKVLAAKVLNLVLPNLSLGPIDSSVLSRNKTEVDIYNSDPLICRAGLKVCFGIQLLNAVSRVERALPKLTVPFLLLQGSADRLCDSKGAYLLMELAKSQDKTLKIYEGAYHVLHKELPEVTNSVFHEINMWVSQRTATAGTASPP

[4] = target: T3, mutant MGL (Homo sapiens, UniProt Q99685, L169S/L176S); test: MGL ThermoFluor assay - mutant; format: binding; details: ThermoFluor concentration-response, read-out: MGL mutant ThermoFluor Kd
T3 sequence (Q99685 1-303 L169S/L176S): T2 sequence (Q99685 1-303) with L169S, L176S

O=C(c1ccc2c(ccn2-c2ccc(F)c(F)c2)c1)N1CC(N2CCN(C(=O)c3cscn3)CC2)C1 [Cpd 1363, 1-(3,4-Difluorophenyl)-5-({3-[4-(1,3-thiazol-4-ylcarbonyl)piperazin-1-yl]azetidin-1-yl}carbonyl)-1H-indole]
2-AG accumulation, % of vehicle control at 1 µM [1]: 628%
inhibition in vivo at 30 mg/kg [2]: 69.7%
IC50 [3]: < 5 nM
Kd [4]: 14 nM

O=C(c1ccc2c(ccn2-c2ccc(F)cc2F)c1)N1CC(N2CCN(C(=O)c3nccs3)CC2)C1 [Cpd 1364, 1-(2,4-Difluorophenyl)-5-({3-[4-(1,3-thiazol-2-ylcarbonyl)piperazin-1-yl]azetidin-1-yl}carbonyl)-1H-indole]
2-AG accumulation, % of vehicle control at 1 µM [1]: 944%
inhibition in vivo at 30 mg/kg [2]: 17%
IC50 [3]: < 5 nM
Kd [4]: 1 nM

O=C(c1ccc2c(ccn2-c2ccc(F)c(F)c2)c1)N1CC(N2CCN(C(=O)c3ccc[nH]3)CC2)C1 [Cpd 1366, 1-(3,4-Difluorophenyl)-5-({3-[4-(1H-pyrrol-2-ylcarbonyl)piperazin-1-yl]azetidin-1-yl}carbonyl)-1H-indole]
2-AG accumulation, % of vehicle control at 1 µM [1]: 586%
inhibition in vivo at 30 mg/kg [2]: 47.1%
IC50 [3]: < 5 nM
Kd [4]: 12 nM
